Experiments:
Assay type in all cases: cell-based, human
[1] = tested on: RBPJk; experiment: COX412-luciferase dual luciferase reporter assay in MELAS cybrid cells overexpressing MNRR1; details: MELAS cybrid cells overexpressing MNRR1, 0.5 μM
From the text: FIGS. 12A-12C: FIG. 12A: Dual luciferase reporter assay showing relative activation of MNRR1-luciferase levels in MELAS cybrid cells overexpressing varying proportions of empty vector (EV) and constitutively active RBPJk (RBP-CA). FIG. 12B: Dual luciferase reporter assay showing relative activation of MNRR1-luciferase levels in MELAS cybrid cells overexpressing an empty vector (EV) or constitutively active RBPJk (RBP-CA) and HIF2α. FIG. 12C: Dual luciferase reporter assay showing relative activation of COX412-luciferase levels in MELAS cybrid cells overexpressing an empty vector (EV), MNRR1, and MNRR1+Auranofin (0.5 μM).
Luciferase reporter assay: Luciferase assays were performed with the dual-luciferase reporter assay kit (Promega). Briefly, cells were lysed in 1× passive lysis buffer (Promega) and 25 μL of lysate was used for assay with a tube luminometer using an integration time of 10 s. Transfection efficiency was normalized with the co-transfected pRL-SV40 Renilla luciferase expression plasmid.

[2] = tested on: MNRR1; experiment: MNRR1 protein levels in MELAS cybrid cells (immunoblot); details: MELAS cybrid cells, 10 μM, 24 h
Procedure: FIGS. 6A-6C: FIG. 6A: Above, Chemical structures of nitazoxanide, its metabolites, and similar compounds. Abbreviations: P4, Phenyl-4-aminosalicylic acid; 4ABA, 4-Aminobenzanilide; 4ASA, 4-Amino salicylic acid; BA, Benzanilide; PBO, Phenyl benzoate; PSA, Phenyl salicylic acid; 2AN, 2-Amino 5-nitrothiazole. Below, Equal amounts of lysates of MELAS cells treated with Vehicle (DMSO) or the various compounds (10 μM) for 24 h were separated on an SDS-PAGE gel and probed for MNRR1 levels. Actin was probed as a loading control and numbers below represent an average and SD of 3 biological replicates. FIGS. 6B-6C: MNRR1 transcript levels are shown relative to 18S rRNA (n=4 biological replicates, error bars represent SE). In all figures, * indicates p<0.05, ** indicates p<0.005.
FIGS. 11A-11F: RBPJk and HIF2α compete for binding at the ORE in the MNRR1 promoter to regulate transcription. FIG. 11A: Chromatin immunoprecipitation-qPCR assessing binding of HIF2α to the endogenous MNRR1 promoter in MELAS cybrid cells with 0% (CL9) and 70% heteroplasmy (DW7). FIG. 11B: Dual luciferase reporter assay showing relative activation of MNRR1-luciferase levels in MELAS cybrid cells overexpressing varying proportions of constitutively active RBPJk (RBP-CA) and HIF2α. FIG. 11C: Dual luciferase reporter assay showing relative activation of MNRR1-luciferase levels in MELAS cybrid cells overexpressing the WT (FIG. 9A) or ΔORE (positions 47-53 in SEQ ID NO: 25 in FIG. 9C) promoter with EV (dotted line) or HIF2α. FIG. 11D: Equal amounts of Control or HIFα knockdown (KD) MELAS cybrid cell lysates were separated on an SDS-PAGE gel and probed for HIF2α and MNRR1 levels. Tubulin was probed as loading control. FIG. 11E: Oxygen consumption measured from Control or HIFα knockdown (KD) MELAS cybrid cells. (n=4 biological replicates, error bars represent SE). FIG. 11F: Left, Oxygen consumption measured from MELAS cybrid cells treated with vehicle (DMSO) or PT2385 (10 μM), an inhibitor of HIF2α function, for 24 h. Right, Equal amounts of MELAS cybrid cell lysates treated with vehicle (DMSO) or PT2385 (10 μM) for 24 h, separated on an SDS-PAGE gel, and probed for MNRR1 levels. GAPDH was probed as a loading control.
Immunoblotting: Immunoblotting was performed as described previously. Cell lysates for immunoblotting were prepared using RIPA buffer (Abcam, Waltham, MA) and included a protease and phosphatase inhibitor cocktail (Sigma, St. Louis, MO). […] The clear supernatants were transferred to new tubes and quantified using the Bradford reagent with BSA as standard (BioRad, Hercules. CA). […] For detection after immunoblotting, the SuperSignal™ West Pico PLUS substrate (ThermoFisher, Waltham, MA) was used to generate chemiluminescence signal, which was detected with X-Ray film (RadTech, Vassar, MI).

[3] = tested on: MELAS cybrid cells; experiment: Oxygen consumption of MELAS cybrid cells (Seahorse); details: 10 μM, 24 h
Procedure: FIGS. 7A-7E: MNRR1 activation by tizoxanide enhances mtDNA biogenesis and mitophagy to shift heteroplasmy in MELAS cells. FIG. 7A: Oxygen consumption measured from MELAS cybrid cells treated with vehicle (DMSO) or tizoxanide (10 μM) for 48 h (n=4 biological replicates, error bars represent SE). FIG. 7B: Haelll restriction enzyme digestion of a PCR-amplified fragment of mtDNA harboring the m.3243A>G mutation from DW7 cells treated with vehicle (DMSO) or tizoxanide (10 μM) for 144 h. […] FIG. 7C: Genes identified using qPCR of MELAS cybrid cells stably overexpressing EV or MNRR1. FIG. 7D: MtDNA levels are shown relative to nuclear DNA (nDNA) (GAPDH) (n=5 biological replicates, error bars represent SE). […]
FIGS. 11A-11F: RBPJk and HIF2α compete for binding at the ORE in the MNRR1 promoter to regulate transcription. […] FIG. 11E: Oxygen consumption measured from Control or HIFα knockdown (KD) MELAS cybrid cells. […] FIG. 11F: Left, Oxygen consumption measured from MELAS cybrid cells treated with vehicle (DMSO) or PT2385 (10 μM), an inhibitor of HIF2α function, for 24 h. […]
Intact cellular oxygen consumption and measurement of ATP: Cellular oxygen consumption was measured with a Seahorse XFe24 Bioanalyzer (Agilent). Cells were plated at a concentration of 3.5×10^4 per well a day prior to treatment and basal oxygen consumption was measured 48 h after treatments, as described. […]

Structure (SMILES)	MNRR1 induced transcription (COX412-luciferase) [1]	MNRR1 protein [2]	OCR [3]
CC(=O)OC[C@H]1O[C@@H]([S-])[C@H](OC(C)=O)[C@@H](OC(C)=O)[C@@H]1OC(C)=O.CCP(CC)CC.[Au+] [Auranonfin, Auranofin]	able to block the effects of MNRR1 induced transcription	–	–
CS(=O)(=O)c1ccc(Oc2cc(F)cc(C#N)c2)c2c1[C@H](O)C(F)(F)C2 [PT2385]	–	rebound increase	rebound increase

Source: patent publication US20250241901A1, “ACTIVATION OF MNRR1 / CHCHD2 AS A THERAPEUTIC TARGET FOR MITOCHONDRIA ASSOCIATED DISORDERS” (Wayne State University, priority 2024, published 2025)
